Experimental data published in patent US20240360415A1, “MUSCLE CELLS DIFFERENTIATED FROM PLURIPOTENT CELLS, METHODS OF PRODUCING SAME AND USE THEREOF” (ALEPH FARMS LTD., priority 2021, published 2024).

Test system: Bovine pluripotent stem cells (PSCs)
Assay: Immunofluorescence staining of Myosin heavy chain (MF-20 antibody) after total of 11 days of differentiation
Format: cell-based
Conditions: 3D suspension 4 days with factors (CHIR 10 μM; Activin A 20 ng/ml or TGFβ 2 ng/ml), then 7 days 2D serum-free without factors; FIG. 3A-3C
Procedure: Bovine skeletal muscle cells in 2D culture were subjected to immunofluorescence analysis as following: The cells were fixed using 4% Paraformaldehyde (PFA; […] Nuclei were stained using […] of DAPI (Sigma). The imaging was performed using EVOS FL Auto 2 Fluorescent Microscopy (ThermoFisher). Bovine pluripotent stem cells (PSCs) were grown in 2D and/or 3D culture. […] The suspension culture conditions (“3D culture conditions”) include ultra-low adherent (ULA) 6-well plate (Corning) placed at 38.5° C. under 5% CO2 and humidity of >75% under rotation. Medium was refreshed using the skeletal Muscle Precursor medium (without RI) and the formed aggregates were allowed to differentiate for a total of 4 days. The aggregates comprising skeletal muscle committed cells were collected and seeded on in a tissue culture Vitronectin (0.005 mg/ml) pre-coated plate (“2D conditions”) in serum free growth medium. […] Medium was refreshed using the skeletal Muscle Precursor medium (without RI) and the formed aggregates were allowed to differentiate for a total of 4 days. After 4 days, the cells comprising skeletal muscle committed cells were collected and seeded in a 2D culture conditions as described for the aggregate obtained from 3D culture conditions described above.

Structure (SMILES): Cc1cnc(-c2cnc(NCCNc3ccc(C#N)cn3)nc2-c2ccc(Cl)cc2Cl)[nH]1 [CHIR-99021, 6-[[2-[[4-(2,4-Dichlorophenyl)-5-(5-methyl-1H-imidazol-2-yl)-2-pyrimidinyl]amino]ethyl]amino]-3-pyridinecarbonitrile]
- Myosin heavy chain positive (skeletal muscle) cells by immunofluorescence: no Myosin positive cells
